PubChem BioAssay AID1259407 (Chemical Carcinogenesis Research Information System (CCRIS), 2018)
Activity calls are given as the source filed them. How the calls were made is not given here.

System: CCRIS mutagenicity, Ames/micronucleus/aberration tests
Experiment: CCRIS mutagenicity studies
[1] = Test System: AMES SALMONELLA TYPHIMURIUM, Strain/Indicator: TA100, Metabolic Activation: NONE, Method: STANDARD PLATE

NNc1ccccc1
mutagenic call (End Point: IN VITRO CHROMOSOMAL ABERRATIONS, Test System: CHL CELLS, Metabolic Activation: NONE): active; positive (structural changes)
mutagenic call (End Point: IN VITRO CHROMOSOMAL ABERRATIONS, Test System: CHL CELLS, Metabolic Activation: RAT, LIVER, S-9, SODIUM PHENOBARBITAL AND 5,6-BENZOFLAVONE): active; positive (structural changes); authors report equivocal results for ploidy chang
mutagenic call (Test System: AMES SALMONELLA TYPHIMURIUM, Strain/Indicator: TA98, Metabolic Activation: NONE, Method: PREINCUBATION): active; positive
mutagenic call (Test System: AMES SALMONELLA TYPHIMURIUM, Strain/Indicator: TA98, Metabolic Activation: RAT LIVER S-9, PHENOBARBITAL AND BETA-NAPHTHOFLAVONE, Method: PREINCUBATION): active; positive
mutagenic call (Test System: AMES SALMONELLA TYPHIMURIUM, Strain/Indicator: TA100, Metabolic Activation: NONE, Method: PREINCUBATION): inactive; negative
mutagenic call [1]: active; positive
mutagenic call (Test System: AMES SALMONELLA TYPHIMURIUM, Strain/Indicator: TA100, Metabolic Activation: RAT KIDNEY, MICROSOMES, Method: STANDARD PLATE): active; positive
mutagenic call (Test System: AMES SALMONELLA TYPHIMURIUM, Strain/Indicator: TA100, Metabolic Activation: RAT LIVER S-9, PHENOBARBITAL AND BETA-NAPHTHOFLAVONE, Method: PREINCUBATION): inactive; negative
mutagenic call (Test System: AMES SALMONELLA TYPHIMURIUM, Strain/Indicator: TA1530, Metabolic Activation: NONE, Method: STANDARD PLATE): active; positive
mutagenic call (Test System: AMES SALMONELLA TYPHIMURIUM, Strain/Indicator: TA1535, Metabolic Activation: NONE, Method: PREINCUBATION): inactive; negative
mutagenic call (Test System: AMES SALMONELLA TYPHIMURIUM, Strain/Indicator: TA1535, Metabolic Activation: RAT LIVER S-9, PHENOBARBITAL AND BETA-NAPHTHOFLAVONE, Method: PREINCUBATION): inactive; negative
mutagenic call (Test System: AMES SALMONELLA TYPHIMURIUM, Strain/Indicator: TA1535, Metabolic Activation: RAT, LIVER, S-9, AROCLOR 1254, Method: PREINCUBATION): inactive; negative
mutagenic call (Test System: AMES SALMONELLA TYPHIMURIUM, Strain/Indicator: TA1537, Metabolic Activation: NONE, Method: PREINCUBATION): active; positive
mutagenic call (Test System: AMES SALMONELLA TYPHIMURIUM, Strain/Indicator: TA1537, Metabolic Activation: RAT LIVER S-9, PHENOBARBITAL AND BETA-NAPHTHOFLAVONE, Method: PREINCUBATION): active; positive
mutagenic call (Test System: AMES SALMONELLA TYPHIMURIUM, Strain/Indicator: TA1537, Metabolic Activation: RAT, LIVER, S-9, AROCLOR 1254, Method: PREINCUBATION): active; positive
mutagenic call (Test System: AMES SALMONELLA TYPHIMURIUM, Strain/Indicator: TA2638, Metabolic Activation: NONE, Method: STANDARD PLATE): active; positive
mutagenic call (Test System: E. COLI, Strain/Indicator: WP2 (PKM101), Metabolic Activation: NONE, Method: STANDARD PLATE): active; positive
mutagenic call (Test System: E. COLI, Strain/Indicator: WP2 UVRA (PKM101), Metabolic Activation: NONE, Method: STANDARD PLATE): active; positive
mutagenic call (Test System: E.COLI, Strain/Indicator: WP2UVRA, Metabolic Activation: NONE, Method: PREINCUBATION): active; positive
mutagenic call (Test System: E.COLI, Strain/Indicator: WP2UVRA, Metabolic Activation: RAT LIVER S-9, PHENOBARBITAL AND BETA-NAPHTHOFLAVONE, Method: PREINCUBATION): active; positive

O[C@H]1C=Cc2c(cc3c4c(cc5ccccc53)-c3ccccc3-c24)[C@@H]1O
mutagenic call (Test System: AMES SALMONELLA TYPHIMURIUM, Strain/Indicator: TA100, Metabolic Activation: MOUSE, LIVER, S-9, 3-METHYLCHOLANTHRENE, Method: STANDARD PLATE): active; positive
mutagenic call (Test System: AMES SALMONELLA TYPHIMURIUM, Strain/Indicator: TA100, Metabolic Activation: RAT, LIVER, S-9, 3-METHYLCHOLANTHRENE, Method: STANDARD PLATE): active; positive

C=CCN(CC=C)CCN(CC=C)CC=C.[Cl-].[Cl-].[Pd+2]
mutagenic call (Test System: AMES SALMONELLA TYPHIMURIUM, Strain/Indicator: TA92, Metabolic Activation: NONE, Method: STANDARD PLATE): inactive; negative
mutagenic call (Test System: AMES SALMONELLA TYPHIMURIUM, Strain/Indicator: TA98, Metabolic Activation: NONE, Method: STANDARD PLATE): inactive; negative
mutagenic call [1]: inactive; negative
mutagenic call (Test System: AMES SALMONELLA TYPHIMURIUM, Strain/Indicator: TA2410, Metabolic Activation: NONE, Method: STANDARD PLATE): inactive; negative
mutagenic call (Test System: E. COLI, Strain/Indicator: TM6, Metabolic Activation: NONE, Method: STANDARD PLATE): active; positive
mutagenic call (Test System: E. COLI, Strain/Indicator: TM9, Metabolic Activation: NONE, Method: STANDARD PLATE): active; positive
